Values quoted from earlier work as cited in US11672863B2, “Enhanced solubility drug-containing formulations” (United Therapeutics Corporation, priority 2017, dated 2023).
Structures can show the parent of a compound that is named as a salt.

Conditions: in water between pH 1.8 and 6

CCCCN1CCCCC1C(=O)Nc1c(C)cccc1C (stereo not shown) [bupivacaine hydrochloride monohydrate]
solubility: 40 to 50 mg/mL
